Data set [1] deals with SW1 cells. The experiment in a line: cells. It counts as cell-based, mouse. The following applies: for effect of JNK inhibitor SP600125 on compound-induced cell death: 30-minute pretreatment with SP600125 (10 μM), then compound 20 h. The method, then:
(§1) Cell lines. Mouse melanoma (SW1) and human melanoma (LU1205) cells were maintained in DMEM supplemented with 10% FBS, L-glutamine and antibiotics. The human melanoma cell lines MEWO and WM115 were maintained in RPMI supplemented with 10% FBS and antibiotics. Primary mouse melanocytes were cultured in F-12 media supplemented with 10% FBS, antibiotics, IBMX (isobuthyl-methylxantine), bovine pituitary extract, and TPA.
Mitochondrial activity and apoptosis. Cells were exposed to the chemicals for 12-48 hours as indicated in Results. To measure changes in mitochondrial activity reflective of general cell viability, the ATPLITE ATP detection assay was used according to the manufacturer's recommendations (Perkin Elmer). Apoptosis analysis was performed by flow cytometry of PI-stained cells. The percentage of cells to the left of the diploid G0/1 peak, characteristic of hypodiploid cells that have partially lost DNA, was calculated as percentage of apoptotic cells (Bhoumik et al., PNAS 101:4222-7, 2004). Analysis of changes in Caspase 8 expression pattern was performed using immunoblot analysis. […]
(§2) Characterization of CSL and AIGA effects on mouse melanoma cells. The structures of AIGA and CSL are depicted in FIGS. 1a and 1b. AIGA was tested for cytotoxicity at concentrations ranging between 0.1 and 2 μM, whereas CSL was used at a concentration of 0.01 to 0.3 μM. SW1 cells or normal melanocytes were seeded on 96 well plates and 24 h late, cells were treated with the indicated concentrations of ATF2 50-100 peptide, AIGA, or CSL for 20 h. ATF2 50-100 peptide (cloned in mammalian expression vector in frame with penetratin was transfected with the aid of lipofectamine) was used as a positive control. ATP levels were used as an indicator of cell viability and were measured using the ATPLITE ATP detection assay kit. The number of surviving cells upon AIGA treatment was normalized to the number of surviving cells under the control treatment, and the normalized number was designated as the “% Viability.” Results shown in FIGS. 1c-1f represent 3 experiments. Treatment of SW1 melanoma cells with 1 μM of AIGA reduced the viability of melanoma cells to 10%, (FIG. 1c). Treatment of the SW1 cells with 0.05 μM of CSL reduced the viability of melanoma cells to 50%, and 0.1 μM reduced it to 10% (FIG. 1d). […] Normal melanocytes and fibroblasts were used as a control.
Thus, the two compounds were evaluated to determine if they require JNK activity for their effects on melanoma cells. To this end, the ability of AIGA or CSL to affect the viability of melanoma cells in the presence of a JNK inhibitor was tested. SW1 cells, with or without a 30-minute pretreatment with the JNK inhibitor SP600125 (10 μM), were contacted with AIGA or CSL at the indicated concentrations for 20 h. ATP levels were used to measure the cell viability using the ATPLITE kit. The number of surviving cells upon AIGA or CSL treatment was normalized to the number of surviving cells under the control treatment, and the normalized number was designated as the “% Viability.” Shown are representative results from 2 experiments. […] Of note, inhibition of JNK activity was more pronounced at lower concentrations of CSL compared with AIGA. […] To assess whether these compounds affect JNK activity, changes in JNK phosphorylation on residues 183/185, which are required for its kinase activity, were monitored. Western blot analysis for JNK phosphorylation on residues 183/185 was performed on protein extracts that were prepared from cells treated with AIGA at concentrations of 0.5 μM, 1.0 μM, and 2.0 μM and a control with no AIGA treatment. Duplicate samples were treated with JNK inhibitor (SP600125). Total level of JNK was analyzed in parallel. […]

In data set [2] the test system is normal human breast cultures MCF10. Put plainly: Toxicity on normal human breast cultures. It counts as cell-based.
Data set [3] deals with normal mouse melanocytes. The experiment in a line: Normal melanocyte viability, ATPLITE. The conditions noted are these: 0.1 μM, 20 h. It counts as cell-based. The method, then: as §1
Mitochondrial activity and apoptosis. Cells were exposed to the chemicals for 12-48 hours as indicated in Results. To measure changes in mitochondrial activity reflective of general cell viability, the ATPLITE ATP detection assay was used according to the manufacturer's recommendations (Perkin Elmer). Apoptosis analysis was performed by flow cytometry of PI-stained cells. The percentage of cells to the left of the diploid G0/1 peak, characteristic of hypodiploid cells that have partially lost DNA, was calculated as percentage of apoptotic cells (Bhoumik et al., PNAS 101:4222-7, 2004). Analysis of changes in Caspase 8 expression pattern was performed using immunoblot analysis.
Characterization of CSL and AIGA effects on mouse melanoma cells. The structures of AIGA and CSL are depicted in FIGS. 1a and 1b. […] ATP levels were used as an indicator of cell viability and were measured using the ATPLITE ATP detection assay kit. […]

Data set [4] concerns NF-κB transcriptional activity. Put plainly: 2-NFκ-B-luciferase reporter assay in SW1 cells. It counts as cell-based, mouse. The following applies: 8 h. How it is done:
(§3) Constructs and inhibitors. An ATF2 peptide (aa 51-100) was cloned into HA-tagged pcDNA3 vector as previously described (Bhoumik et al., Cancer Res 64:8222-30, 2004). 5×Jun2tk-Luc (marker for ATF2 transcriptional activities), 5×TRE-tk-Luc (marker for AP1/c-Jun transcriptional activities) and 2×NF-B-Luc were previously described (Bhoumik et al., J Clin Invest 110:643-50, 2002). Pharmacological inhibitor of JNK (SP600125) was purchased (EMD biosciences) and added (5 μM) to cultured cells as indicated in Results.
(§4) Transcriptional analysis. Transient transfection of different reporter constructs into melanoma cells was performed using LIPOFECTAMINE PLUS transfection reagent (Invitrogen). Luciferase activity was determined as previously described (Bhoumik et al., PNAS 101:4222-7, 2004).
To assess whether CSL may affect the transcriptional activities of genes other than ATF2 and c-Jun, possible changes in transcriptional activities of NF-κB were monitored. Transcriptional activation of NFκ-B was assessed using the 2-NFκ-B-luciferase assay. Briefly, SW1 cells were transfected with the 2-NFκ-B-luciferase plasmid and 24 h later, cells were treated with the indicated concentrations of AIGA or CSL for 8 h before proteins were prepared and level of luciferase activity was measured. ATF250-100 peptide was used as a positive control. Data shown represent results from 2 experiments. […]

The test system of data set [5] is human diploid fibroblasts (IMR90). The experiment in a line: Toxicity on human diploid fibroblasts. The data set is classed as cell-based. The method, then: as §2
The test system of data set [6] is AP1/c-Jun transcriptional activity. The experiment in a line: TRE-luciferase reporter assay in SW1 cells. The data set is classed as cell-based, mouse. The following applies: 8 h; for AP1/c-Jun transcriptional activity (TRE-Luc): compounds compared with ATF2 peptide; for dose from which c-Jun transcriptional activity is induced: TRE-Luc. The method, then: as §3, §4
The effects of the two compounds on c-Jun transcriptional activity in mouse melanoma SW1 cells was assessed. SW1 cells were transfected with the TRE-luciferase plasmid and 24 h later, cells were treated with the indicated concentrations of AIGA or CSL for 8 h before proteins were prepared and level of luciferase activity was measured. ATF250-100 peptide was used as a positive control. Data shown represent results from 3 experiments. […] AIGA induced c-Jun transcriptional activity at doses starting from 0.1 μM (FIG. 2a).

Read-outs that look alike come from different tables or passages of the source.

As a reminder, the viability is a read-out of living cells in per cent, often relative to untreated cells. On to `CC(=O)Oc1c2c(c(CC=C(C)C)c3c1C(=O)C1=C[C@@H]4CC5C(C)(C)OC(C/C=C(\C)C(=O)O)(C4=O)[C@@]15O3)OC(C)(CCC=C(C)C)C=C2` (stereo partly drawn) [AIGA, Acetyl isogambogic acid], for which the “effect of JNK inhibitor SP600125 on compound-induced cell death” value in data set [1] was “attenuated the ability of AIGA or CSL to elicit the cell death”. The viability at 1 µM in data set [1] (Mus musculus, 20 h, read-out: % Viability of SW1 melanoma cells) is 10%. In addition, the “toxic effect on normal human breast cultures MCF10” value in data set [2] is reported as “Neither CSL nor AIGA elicited toxic effect”. Besides, in data set [3], the “toxicity on normal mouse melanocytes” value is on record as 40%. In addition, in data set [4], the NF-κB transcriptional activity entry was “dose-dependent inhibition”. Moreover, in data set [5], the “toxic effect on human diploid fibroblasts (IMR90)” value is given as “Neither CSL nor AIGA elicited toxic effect”. Further, in data set [6], the “AP1/c-Jun transcriptional activity (TRE-Luc)” value is given as “stronger activation of c-Jun transcription” and the “dose from which c-Jun transcriptional activity is induced” value is at least 0.1 µM.

By EC50 is commonly meant the concentration that produces a half-maximal response. With `CC1=C(O)C(=O)C=C2C1=CC=C1[C@@]2(C)CC[C@@]2(C)[C@@H]3C[C@](C)(C(=O)O)CC[C@]3(C)CC[C@]12C` [Celastrol], in data set [1], the “effect of JNK inhibitor SP600125 on compound-induced cell death” value is “attenuated the ability of AIGA or CSL to elicit the cell death”. Besides, the viability at 0.05 µM in data set [1] (Mus musculus, 0.05 μM, 20 h, read-out: % Viability of SW1 melanoma cells) amounted to 50%. In data set [1] (Mus musculus, 0.1 μM, 20 h, read-out: % Viability of SW1 melanoma cells), the viability at 0.1 µM is 10%. Also, in data set [1] (Mus musculus, numeric EC50 cells of the column, read-out: Activity or EC50 (μM) in SW1 cells), the EC50 was around 0.1 µM. In data set [2] (data not shown), the “toxic effect on normal human breast cultures MCF10” value was “Neither CSL nor AIGA elicited toxic effect”. For the same compound, the “toxicity on normal mouse melanocytes” value in data set [3] was 10%. The NF-κB transcriptional activity result in data set [4] is given as “dose-dependent inhibition”. Also, the “toxic effect on human diploid fibroblasts (IMR90)” value in data set [5] (data not shown) is listed as “Neither CSL nor AIGA elicited toxic effect”. In data set [6], the “AP1/c-Jun transcriptional activity (TRE-Luc)” value is recorded as “stronger activation of c-Jun transcription” and the “dose from which c-Jun transcriptional activity is induced” value was at least 0.01 µM.

These data come from patent publication US7888355B2, “Compositions and methods for inhibiting growth and metastasis of melanoma” (Burnham Institute for Medical Research, priority 2007, dated 2011).
